27 compounds from patent US9765068B2, “PRMT5 inhibitors and uses thereof” (Epizyme, Inc., priority 2012, dated 2017) can be followed below.

PRMT5/MEP50, sequence (O14744 other isoform, or with tags, fused parts or gaps): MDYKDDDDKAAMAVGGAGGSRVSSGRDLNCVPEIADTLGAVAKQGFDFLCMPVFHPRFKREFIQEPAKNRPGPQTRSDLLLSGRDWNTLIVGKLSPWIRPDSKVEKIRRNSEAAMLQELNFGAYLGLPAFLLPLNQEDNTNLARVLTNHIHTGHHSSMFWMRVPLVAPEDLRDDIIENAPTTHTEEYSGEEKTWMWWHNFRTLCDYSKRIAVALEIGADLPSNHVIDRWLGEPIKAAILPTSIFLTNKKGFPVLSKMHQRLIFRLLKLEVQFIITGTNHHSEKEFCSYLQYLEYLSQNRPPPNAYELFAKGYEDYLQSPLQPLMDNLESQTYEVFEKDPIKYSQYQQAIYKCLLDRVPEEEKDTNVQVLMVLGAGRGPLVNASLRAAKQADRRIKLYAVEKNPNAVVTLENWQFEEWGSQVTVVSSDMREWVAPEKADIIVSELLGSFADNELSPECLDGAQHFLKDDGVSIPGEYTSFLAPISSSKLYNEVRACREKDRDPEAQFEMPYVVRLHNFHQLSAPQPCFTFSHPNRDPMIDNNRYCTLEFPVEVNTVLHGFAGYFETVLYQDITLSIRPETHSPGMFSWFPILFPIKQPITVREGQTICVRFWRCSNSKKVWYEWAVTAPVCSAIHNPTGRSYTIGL
PRMT5/MEP50, sequence (Q9BQA1 other isoform, or with tags, fused parts or gaps partner): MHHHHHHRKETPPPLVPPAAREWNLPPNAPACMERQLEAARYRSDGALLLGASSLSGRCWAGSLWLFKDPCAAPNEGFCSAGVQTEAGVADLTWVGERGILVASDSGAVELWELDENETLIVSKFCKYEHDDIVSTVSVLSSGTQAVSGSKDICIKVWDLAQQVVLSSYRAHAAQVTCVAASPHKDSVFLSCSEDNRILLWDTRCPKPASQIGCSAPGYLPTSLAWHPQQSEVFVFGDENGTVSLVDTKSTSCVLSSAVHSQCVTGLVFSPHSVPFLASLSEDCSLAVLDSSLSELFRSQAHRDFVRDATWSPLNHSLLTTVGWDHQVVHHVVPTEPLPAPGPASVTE

In the test the target is PRMT5/MEP50 (Homo sapiens (Human), UniProt O14744). In words: PRMT5 Biochemical Assay (PRMT5/MEP50 enzyme assay on peptide substrate, 3H-SAM Flashplate). As to conditions: PRMT5/MEP50 4 nM, 3H-SAM 75 nM, peptide 40 nM. From the text:
General Materials. S-adenosylmethionine (SAM), S-adenosylhomocysteine (SAH), bicine, KCl, Tween20, dimethylsulfoxide (DMSO), bovine skin gelatin (BSG), and Tris(2-carboxyethyl)phosphine hydrochloride solution (TCEP) were purchased from Sigma-Aldrich at the highest level of purity possible. ^3H-SAM was purchase from American Radiolabeled Chemicals with a specific activity of 80 Ci/mmol. 384-well streptavidin Flashplates were purchased from PerkinElmer.
Substrates. Peptide representative of human histone H4 residues 1-15 was synthesized with a C-terminal linker-affinity tag motif and a C-terminal amide cap by 21st Century Biochemicals. […] The sequence was Ac-[…][K-Biot]-amide (SEQ ID NO.:3).
Full-length human MEP50 (NM_024102) clone was amplified from a human testis cDNA library incorporating a 5′ sequence encoding a 6-histidine tag (MHHHHHH) (SEQ ID NO.:5) fused directly to Arg 2 of MEP50. The amplified genes were sublconed into pENTR/D/TEV (Life Technologies) and subsequently transferred by Gateway™ attL×attR recombination to pDEST8 baculvirus expression vector (Life Technologies).
Protein Expression. Recombinant baculovirus and Baculovirus-Infected Insect Cells (BIIC) were generated according to Bac-to-Bac kit instructions (Life Technologies) and Wasilko, 2006, respectively. Protein over-expression was accomplished by infecting exponentially growing Spodoptera frugiperda (SF9) cell culture at 1.2×10^6 cell/ml with a 5000 fold dilution of BIIC stock. Infections were carried out at 27° C. for 72 hours, harvested by centrifugation, and stored at −80° C. for purification.
Protein Purification. […] Flag-PRMT5/6His-MeP50 was eluted with 300 mM Imidazole in the same buffer. […] Reference: Wasilko, D. J. and S. E. Lee: “TIPS: titerless infected-cells preservation and scale-up” Bioprocess J., 5 (2006), pp. 29-32.
General Procedure for PRMT5/MEP50 Enzyme Assays on Peptide Substrates.
The assays were all performed in a buffer consisting of 20 mM Bicine (pH=7.6), 1 mM TCEP, 0.005% BSG, and 0.002% Tween20, prepared on the day of use. Compounds in 100% DMSO (1 ul) were spotted into a polypropylene 384-well V-bottom plates (Greiner) using a Platemate Plus outfitted with a 384-channel head (Thermo Scientific). DMSO (1 ul) was added to Columns 11, 12, 23, 24, rows A-H for the maximum signal control and 1 ul of SAH, a known product and inhibitor of PRMT5/MEP50, was added to columns 11, 12, 23, 24, rows I-P for the minimum signal control. A cocktail (40 ul) containing the PRMT5/MEP50 enzyme and the peptide was added by Multidrop Combi (Thermo-Fisher). The compounds were allowed to incubate with PRMT5/MEP50 for 30 min at 25 degrees Celsius, then a cocktail (10 ul) containing ^3H-SAM was added to initiate the reaction (final volume=51 ul). The final concentrations of the components were as follows: PRMT5/MEP50 was 4 nM, ^3H-SAM was 75 nM, peptide was 40 nM, SAH in the minimum signal control wells was 100 uM, and the DMSO concentration was 1%. The assays were stopped by the addition of non-radioactive SAM (10 ul) to a final concentration of 600 uM, which dilutes the ^3H-SAM to a level where its incorporation into the peptide substrate is no longer detectable. 50 ul of the reaction in the 384-well polypropylene plate was then transferred to a 384-well Flashplate and the biotinylated peptides were allowed to bind to the streptavidin surface for at least 1 hour before being washed three times with 0.1% Tween20 in a Biotek ELx405 plate washer. The plates were then read in a PerkinElmer TopCount plate reader to measure the quantity of ^3H-labeled peptide bound to the Flashplate surface, measured as disintegrations per minute (dpm) or alternatively, referred to as counts per minute (cpm).
[formula] Where dpm=disintegrations per minute, cmpd=signal in assay well, and min and max are the respective minimum and maximum signal controls.
Turning to `O=C(COc1cccc(F)c1)NCC(O)CN1CCc2ccccc2C1` (stereo not drawn) [Compound 7, N-(3-(3,4-dihydroisoquinolin-2(1H)-yl)-2-hydroxypropyl)-2-(3-fluorophenoxy)acetamide], the half-maximal inhibitory concentration (IC50) was in the range of 101 to 1000 nM.
In the case of `O=C(CNc1ccccc1)NCC(O)CN1CCc2ccccc2C1` (stereo not drawn) [Compound 18] it was 1000 to 10000 nM; in that of `NC(=O)c1ccc(OCC(=O)NCC(O)CN2CCc3ccccc3C2)cc1` (stereo not drawn) [Compound 13], 1000 to 10000 nM; in that of `NC(=O)c1cccc(OCC(=O)NCC(O)CN2CCc3ccccc3C2)c1` (stereo not drawn) [Compound 34, 3-(2-((3-(3,4-dihydroisoquinolin-2(1H)-yl)-2-hydroxypropyl)amino)-2-oxoethoxy)benzamide], 101 to 1000 nM.
In the case of `CN1CCN(c2ccccc2OCC(=O)NC[C@@H](O)CN2CCc3ccccc3C2)CC1` [Compound 85] it was 1000 to 10000 nM; in that of `Cn1ccnc1-c1ccccc1OCC(=O)NCC(O)CN1CCc2ccccc2C1` (stereo not drawn) [Compound 138], 101 to 1000 nM.
In the case of `O=C(COc1ccccc1)NC[C@@H](O)CN1CCc2ccccc2C1` [Compound 33], the IC50 lay in the range of 1000 to 10000 nM.
In the case of `O=C(CC1CCCCC1)NC[C@@H](O)CN1CCc2ccccc2C1` [Compound 58], the concentration for half-maximal inhibition (IC50) lay in the range of 10000 to 50000 nM.
Next, `Cn1cc2c(OCC(=O)NCC(O)CN3CCc4ccccc4C3)cccc2n1` (stereo not drawn) [Compound 118]: 101 to 1000 nM; `CN(C)c1ccc2cccc(OCC(=O)NC[C@H](O)CN3CCc4ccccc4C3)c2n1` [Compound 104]: 101 to 1000 nM.
Next, `CN(CC(O)CN1CCc2ccccc2C1)C(=O)CCc1ccccc1` (stereo not drawn) [Compound 3]: 1000 to 10000 nM; `CC(=O)N1CCN(S(=O)(=O)c2ccccc2OCC(=O)NCC(O)CN2CCc3ccccc3C2)CC1` (stereo not drawn) [Compound 122]: 101 to 1000 nM; `O=C(COc1cccc2[nH]c(=O)cnc12)NCC(O)CN1CCc2ccccc2C1` (stereo not drawn) [Compound 125]: 1000 to 10000 nM.
In the case of `N#Cc1ccccc1OCC(=O)NCC(O)CN1CCc2ccccc2C1` (stereo not drawn) [Compound 17] it was 101 to 1000 nM.
With `Cn1cnc2cc(OCC(=O)NCC(O)CN3CCc4ccccc4C3)ccc21` (stereo not drawn) [Compound 46, N-(3-(3,4-dihydroisoquinolin-2(1H)-yl)-2-hydroxypropyl)-2-((1-methyl-1H-benzo[d]imidazol-5-yl)oxy)acetamide], the IC50 was 101 to 1000 nM.
Consider `O=C(Cc1ccccc1)NC[C@@H](O)CN1CCc2ccccc2C1` [Compound 57], for which the IC50 fell in the range of 10000 to 50000 nM.
Next, `O=C(COc1cccc2c1CCCN2)NCC(O)CN1CCc2ccccc2C1` (stereo not drawn) [Compound 150]: 101 to 1000 nM.
Next, `COc1ccc(OCC(=O)NCC(O)CN2CCc3ccccc3C2)cc1` (stereo not drawn) [Compound 12, N-(3-(3,4-dihydroisoquinolin-2(1H)-yl)-2-hydroxypropyl)-2-(4-methoxyphenoxy)acetamide]: 101 to 1000 nM; `CC(Oc1ccccc1S(C)(=O)=O)C(=O)NCC(O)CN1CCc2ccccc2C1` (stereo not drawn) [Compound 114]: 101 to 1000 nM.
In the case of `O=C(COc1cccc(NC2CCOCC2)n1)NCC(O)CN1CCc2ccccc2C1` (stereo not drawn) [Compound 121] it was 1000 to 10000 nM; in that of `O=C(COc1ccccc1)NC[C@H](O)CN1CCc2ccccc2C1` [Compound 32], 101 to 1000 nM.
Take `Cn1nccc1-c1cccc(CC(=O)NCC(O)CN2CCc3ccccc3C2)c1` (stereo not drawn) [Compound 54, N-(3-(3,4-dihydroisoquinolin-2(1H)-yl)-2-hydroxypropyl)-2-(3-(1-methyl-1H-pyrazol-5-yl)phenyl)acetamide]: the half-inhibitory concentration (IC50) was 101 to 1000 nM.
Next, `CC(C)(C)OC(=O)Nc1ccccc1OCC(=O)NCC(O)CN1CCc2ccccc2C1` (stereo not drawn) [Compound 141]: 1000 to 10000 nM.
In the case of `O=C(COc1cccc2ncc(=O)[nH]c12)NCC(O)CN1CCc2ccccc2C1` (stereo not drawn) [Compound 129], the IC50 was 101 to 1000 nM.
For `CS(=O)(=O)Nc1ccc(OCC(=O)NCC(O)CN2CCc3ccccc3C2)cc1` (stereo not drawn) [Compound 42], the IC50 lay within 101 to 1000 nM.
Next, `CN(C)C(=O)c1ccccc1OCC(=O)NCC(O)CN1CCc2ccccc2C1` (stereo not drawn) [Compound 113]: 101 to 1000 nM; `O=C(COC1CCOCC1)NCC(O)CN1CCc2ccccc2C1` (stereo not drawn) [Compound 41]: 1000 to 10000 nM.
